Test results reported in patent US11980618B2, “Nitric oxide releasing phosphodiesterase type 5 inhibitor” (NICOX S.A., priority 2018, dated 2024).

Legend:
[1] = test system: ocular normotensive New Zealand white rabbits; experiment: Intraocular pressure (IOP) lowering effects in ocular normotensive New Zealand white rabbits (topical dosing, pneumatonometer); format: in vivo
[2] = test system: laser-induced ocular hypertensive non-human primates; experiment: Intraocular pressure (IOP) lowering effect in laser-induced ocular hypertensive non-human primates (topical dosing, pneumatonometer); format: in vivo
[3] = Example 26, 2.0% w/v, 30 μL topical

CCCOc1ccc(S(=O)(=O)N2CCN(CCO[N+](=O)[O-])CC2)cc1-c1nc2c(CCC)cn(CC)c2c(=O)[nH]1 [PDE5 nitrate ester, 2-(4-(3-(5-ethyl-4-oxo-7-propyl-4,5-dihydro-3H-pyrrolo[3,2-d]pyrimidin-2-yl)-4-propoxyphenylsulfonyl)piperazin-1-yl)ethyl Nitrate, reference compound]
IOP change (mmHg) E180 min ([1]; Example 25, Table 4, 180 min post-dosing, topical, 0.5 μmoles/eye, mean±SEM n=6-9): 0.3 ± 0.8 mmHg
time post dosing of Emax ([1]; Example 25, Table 4, topical, 0.5 μmoles/eye): 60 min
IOP change (mmHg) Emax ([1]; Example 25, Table 4, topical, 0.5 μmoles/eye, change versus basal and vehicle, mean±SEM n=6-9): −2.6 ± 0.5 mmHg

COc1ccc(CNc2nc(N3CCC[C@H]3COC(=O)CCCCCO[N+](=O)[O-])ncc2C(=O)NCc2ncccn2)cc1Cl.O=C(O)/C=C/C(=O)O [Compound (9)-fumarate salt, (S)-(1-(4-(3-chloro-4-methoxybenzylamino)-5-(pyrimidin-2-ylmethylcarbamoyl)pyrimidin-2-yl)pyrrolidin-2-yl)methyl 6-(nitrooxy)hexanoate Fumarate]
IOP change (mmHg) 30 min ([2]; Example 26, Table 5, 2.0% w/v, 30 μL topical, 30 min post-dosing, mean±SEM n=8 eye): −4.0 ± 1.3 mmHg
IOP change (mmHg) 60 min ([2]; Example 26, Table 5, 2.0% w/v, 30 μL topical, 60 min post-dosing, mean±SEM n=8 eye): −3.5 ± 1.6 mmHg
IOP change (mmHg) 300 min ([2]; Example 26, Table 5, 2.0% w/v, 30 μL topical, 300 min post-dosing, mean±SEM n=8 eye): −4.1 ± 2.7 mmHg
IOP change (mmHg) 1440 min ([2]; Example 26, Table 5, 2.0% w/v, 30 μL topical, 1440 min (24 hours) post-dosing, mean±SEM n=8 eye, Fumarate): −2.8±2.0 mmHg
maximum intraocular pressure-lowering efficacy, Emax [2, 3]: −4.1±2.7 mmHg
time of Emax [2, 3]: 300 min

CCCOc1ccc(S(=O)(=O)N2CCN(CCOC(=O)CCOC[C@@H](CO[N+](=O)[O-])O[N+](=O)[O-])CC2)cc1-c1nc2c(CCC)cn(CC)c2c(=O)[nH]1.O=C(O)CC(O)(CC(=O)O)C(=O)O [Compound (1)-(2S)-citrate salt, (S)-2-(4-(3-(5-ethyl-4-oxo-7-propyl-4,5-dihydro-3H-pyrrolo[3,2-d]pyrimidin-2-yl)-4-propoxyphenylsulfonyl)piperazin-1-yl)ethyl 3-[2,3-bis(nitrooxy)propoxy]propanoate citrate]
IOP change (mmHg) 30 min ([2]; in vivo): −4.0 ± 0.9 mmHg
IOP change (mmHg) 60 min ([2]; in vivo): −5.3 ± 1.0 mmHg
IOP change (mmHg) 180 min ([2]; in vivo): −4.9 ± 1.5 mmHg
IOP change (mmHg) 300 min ([2]; in vivo): −4.4 ± 0.9 mmHg
IOP change (mmHg) 1440 min ([2]; in vivo): −2.6 ± 1.3 mmHg
IOP change (mmHg) E300 min ([2]; in vivo): −5.3 ± 1.9 mmHg
IOP change (mmHg) Emax ([2]; in vivo): −7.0 ± 0.9 (60 min) mmHg
IOP change (mmHg) E180 min ([1]; rabbit, in vivo): −1.8 ± 0.8 mmHg
IOP change (mmHg) Emax ([1]; rabbit, in vivo): −3.8 ± 0.5 (60 min) mmHg
IOP change at Emax ([1]; rabbit, in vivo): −3.8 ± 0.5 (60 min)

O=C(O)CCCCCO[N+](=O)[O-] [(IIIa)-OH, 6-(nitrooxy)hexanoic acid]
IOP change (mmHg) E480 ([2]; in vivo): −2.7±1.5 mmHg
IOP change (mmHg) Emax ([2]; in vivo): −5.2±1.0 mmHg

CCCOc1ccc(S(=O)(=O)N2CCN(CCO)CC2)cc1-c1nc2c(CCC)cn(CC)c2c(=O)[nH]1 [Mirodenafil, reference compound]
IOP change (mmHg) E300 min ([2]; Example 22, Table 1, 300 min post-dose, topical 30 μL, 0.48 μmoles/eye (1.17 μmoles/eye for (IIIg)-OH), mean±SEM n=13): −3.4 ± 2.3 mmHg
time post-dosing of Emax ([2]; Example 22, Table 1, topical 30 μL, 0.48 μmoles/eye (1.17 μmoles/eye for (IIIg)-OH)): 180 min
IOP change (mmHg) Emax ([2]; Example 22, Table 1, topical 30 μL, 0.48 μmoles/eye (1.17 μmoles/eye for (IIIg)-OH), change versus basal and vehicle, mean±SEM n=13): −5.0 ± 2.1 mmHg
IOP change (mmHg) 30 min ([2]; Example 27, Table 6, 0.31 μmoles/eye (each compound), 30 μL topical, 30 min post-dose, mean±SEM n=13): −2.2 ± 1.4 mmHg
IOP change (mmHg) 60 min ([2]; Example 27, Table 6, 0.31 μmoles/eye (each compound), 30 μL topical, 60 min post-dose, mean±SEM n=13): −4.1 ± 1.5 mmHg
IOP change (mmHg) 180 min ([2]; Example 27, Table 6, 0.31 μmoles/eye (each compound), 30 μL topical, 180 min post-dose, mean±SEM n=13): −3.8 ± 1.0 mmHg
IOP change (mmHg) 300 min ([2]; Example 27, Table 6, 0.31 μmoles/eye (each compound), 30 μL topical, 300 min post-dose, mean±SEM n=13): −2.2 ± 1.1 mmHg
IOP change (mmHg) 1440 min ([2]; Example 27, Table 6, 0.31 μmoles/eye (each compound), 30 μL topical, 1440 min post-dose, mean±SEM n=13): −1.0 ± 1.1 mmHg
IOP change (mmHg) E300 min ([1]; Example 24, Table 3, 300 min post-dosing, topical 50 μL, 0.5 μmoles/eye (each compound), mean±SEM n=6-9): −1.46 ± 0.79 mmHg
time post-dosing of Emax ([1]; Example 24, Table 3, topical 50 μL, 0.5 μmoles/eye (each compound)): 120 min
IOP change (mmHg) Emax ([1]; Example 24, Table 3, topical 50 μL, 0.5 μmoles/eye (each compound), change versus basal and vehicle, mean±SEM n=6-9): −3.68 ± 0.89 mmHg

COc1ccc(CNc2nc(N3CCC[C@H]3COC(=O)CCOC[C@@H](CO[N+](=O)[O-])O[N+](=O)[O-])ncc2C(=O)NCc2ncccn2)cc1Cl.O=C(O)CC(O)(CC(=O)O)C(=O)O [Compound (12)-(2S)-citrate salt, ((S)-1-(4-(3-chloro-4-methoxybenzylamino)-5-(pyrimidin-2-ylmethylcarbamoyl)pyrimidin-2-yl)pyrrolidin-2-yl)methyl 3-((S)-2,3-bis(nitrooxy)propoxy)propanoate 2-hydroxypropane-1,2,3-tricarboxylate]
IOP change (mmHg) 30 min ([1]; rabbit, in vivo): −5.6 ± 0.9 mmHg
IOP change (mmHg) 60 min ([1]; rabbit, in vivo): −3.9 ± 1.0 mmHg
IOP change (mmHg) 120 min ([1]; rabbit, in vivo): −2.4 ± 0.8 mmHg

COc1ccc(CNc2nc(N3CCC[C@H]3COC(=O)CCCCCO[N+](=O)[O-])ncc2C(=O)NCc2ncccn2)cc1Cl.O=C(O)CC(O)(CC(=O)O)C(=O)O [Compound (9)-citrate salt, (S)-(1-(4-(3-chloro-4-methoxybenzylamino)-5-(pyrimidin-2-ylmethylcarbamoyl)pyrimidin-2-yl)pyrrolidin-2-yl)methyl 6-(nitrooxy)hexanoate 2-hydroxypropane-1,2,3-tricarboxylate]
IOP change (mmHg) E480 ([2]; in vivo): −6.0±2.1 mmHg
IOP change (mmHg) Emax ([2]; in vivo): −6.0±2.1 mmHg
